The text below walks through data of US20150018294A1, “MODULATORS OF TOUSLED KINASE IN CELLULAR PROCESSES” (priority 2012, published 2015).

Assay [1] relates to PC 3 (human CaP cells). Conditions: THD 0.25 mg daily oral gavage; doxo 1 mg/kg intraperitoneal days 54, 68, 95. The procedure:
PC 3 model. A study was undertaken to investigate the in vivo efficacy of THD compared to doxo and to determine any sensitization conferred to the tumor cells by treatment with a combination of the two drugs. Eighty male SCID/bg mice received 1×106 PC 3 (human CaP cells) cells subcutaneous into their flanks. At day 49 post s inoculation, we began weekly tumor measurements by caliper [volume=(L×W2)[…])]. […] At day 54, daily oral gavages of THD (0.25 mg in water) were given, and intraperitoneal injections of doxo (1 mg/kg; see arrows in FIG. 7) were at days 54, 68, and 95 (last day before euthanasia). […] In any case, the tumors were excised at the end of the experiment (before the control group tumors reached the preset end point of 1500 mm3) and processed for IHC analysis. The mice were dosed on last day before euthanasia with doxo to induce bona fide DSBs.

The subject of assay [2] is PC 3 (human CaP cells). The assay is described as follows: IHC analysis of excised PC 3 tumors. Conditions: mouse, in vivo. Set-up: species or system SCID/bg mice. The text has this:
Some features are immediately noticeable even upon H&E staining that could explain the tumor growth patterns. […] We interpret this as being the result of accumulation of DNA damage, including DSBs, which are not promptly repaired, even as they may be expected to occur spontaneously in many cells in the harsh environment of tumor growth. This has in fact been reported before and was attributed to localized hypoxia 24. […] The staining was not negative, as one may think, since inspection at higher magnification confirmed the expected pattern of exclusively nuclear staining and lower intensity in nucleoli. […] This is consistent with the γH2AX pattern, showing a large number of cells harboring repair foci, and thus likely arrested in replication (or progressing slowly through S phase). To further establish this, we looked at presence of RPA foci, which is indicative of stalled forks25. As expected from the large number of proliferating cells (PCNA positive) in control tumors, RPA1 Staining was very strong, and particularly in focal areas. RPA1 staining in tumors from doxo treated mice was interesting. […] In tumors from mice treated with doxo+THD, staining for RPA was very weak and consistent to that obtained for PCNA. […] However, we did stain for P Rad9 (S328) to confirm that the effects were mediated via TLK inhibition, in what we propose is part of a checkpoint deactivation mechanism following repair of spontaneous DNA damage. Indeed, numerous cells stained lightly for P Rad9 in untreated tumor cells in fact, they are perhaps a larger proportion than those staining for γH2AX that presumably represent cells with unrepaired DSBs.

For the next assay, the system named is MDA 231-Luc. The assay is described as follows: MDA 231-Luc xenograft model. In kind it is in vivo. Conditions: female SCID/bg mice, treatment groups as in PC 3 study. The source says:
We used the breast cancer model cell line MDA 231-Luc, for more precise quantitation of tumor growth (photon emission is linear with the tumor cell number). Female SCID/bg mice (N=8 per group) received 1×10^6 cells and when the tumors reached ˜500 mm3 (˜104 photons/sec) they were assigned to four treatment groups, as in the study above (Sup. FIG. 4).

The target of a further assay is T1, TLK1B (Homo sapiens, UniProt Q9UKI8).
T1 sequence (Q9UKI8 1-549 isoform Q9UKI8-3): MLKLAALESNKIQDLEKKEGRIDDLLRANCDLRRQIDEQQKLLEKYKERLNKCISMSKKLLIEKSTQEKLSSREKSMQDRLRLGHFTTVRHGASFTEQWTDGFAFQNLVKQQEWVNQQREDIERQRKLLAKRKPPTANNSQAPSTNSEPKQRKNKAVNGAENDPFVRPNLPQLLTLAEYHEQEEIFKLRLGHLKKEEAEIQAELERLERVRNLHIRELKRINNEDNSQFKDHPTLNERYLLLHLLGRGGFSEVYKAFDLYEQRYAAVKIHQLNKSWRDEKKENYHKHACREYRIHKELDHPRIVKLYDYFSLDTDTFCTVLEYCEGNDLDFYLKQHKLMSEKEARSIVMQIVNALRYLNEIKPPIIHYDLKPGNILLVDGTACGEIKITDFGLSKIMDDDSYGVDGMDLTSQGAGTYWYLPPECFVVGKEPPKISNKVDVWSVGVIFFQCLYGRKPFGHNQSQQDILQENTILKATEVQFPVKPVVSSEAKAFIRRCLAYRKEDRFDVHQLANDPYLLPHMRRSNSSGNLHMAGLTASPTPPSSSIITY
Put plainly: TLK1B kinase assay (auto kinase assay with γ 32P ATP; recombinant TLK1B with Rad9 peptide). The class given is biochemical. The note with it: for activity on TLK (TLK kinase assays): inactive defined at concentrations <10 μM. The procedure: To identify inhibitors of TLK, we developed a high throughput screen with recombinant TLK1B, a small Rad9 peptide and the ADP Hunter reagent (DiscoveRx). Using this assay, the Innovative North Louisiana Experimental Therapeutics (INLET) screening core (affiliated with the FWCC) screened the Prestwick library, two other proprietary libraries, and a subset of the ChemDiv library (˜6000 compounds).
Following the initial fluorescent screen at a compound concentration of ˜5 μM, potential hits were tested with a more sensitive auto kinase assay with γ 32P ATP. Inhibition of auto phosphorylation was confirmed by TCA precipitable counts (FIG. 1A). The inhibitors are highly specific for TLKs. […] We have additional evidence for direct binding of these compounds to the recombinant protein (to be published elsewhere).
TlK1 immune complexes isolated from […] protein extracts using abtiserum made in our lab and Protein A beads. Adsorbed proteins were washed twice in kinase assay buffer (KAB) (50 mM HEPES pH 7.2, 10 mM MgCl2, 5 mM MnCl2, 2.5 mM EGTA, 1 mM DTT, 1 mM NaF, 0.2 mM sodium o vanadate, […] leupeptin, 2 g/ml aprotinin) and incubated for 15-30 min at 30° C. in KAB supplemented with 10 µM ATP, 10 Ci [−32P]ATP (>5000 Ci/mmol, GE). The proteins were separated on 10% SDS-PAGE gels, transferred to nitrocellulose before exposure on a Phosphorlmager; and then processed for WB with TLK1 antiserum. For kinase assays with recombinant TLK1B protein, the reactions were similar, and carried out with 10 ng TLK1B and 50 ng Rad9 peptide substrate. These were carried out to confirm the initial “hits” from the screen and further to obtain accurate ID50 values for the various inhibitors.

A further assay deals with D2 receptor (Homo sapiens, UniProt P14416). Conditions: cited from earlier work.
A further assay deals with cell cycle. The assay is described as follows: Cell cycle and apoptosis, with or without doxo. The class given is cell-based. The note with it: inhibitor alone, 15 μM. The source says:
A matching experimental set was processed by WB for evidence of cleaved PARP, and possible effects on ClnD1 accumulation, which occurs in late G1 and throughout S phases. […] The

The subject of assay [3] is stalled replication forks. Put plainly: Restart of stalled replication forks after release from hydroxyurea. The class given is cell-based. Conditions: after release from hydroxyurea (HU).
In a further assay the target is DNA PK (Homo sapiens, UniProt P78527). Conditions: cited from earlier work.
For another assay, the target named is T2, GST TLK1B (Homo sapiens, UniProt Q9UKI8).
T2 sequence (Q9UKI8 1-549 isoform Q9UKI8-3): T1 sequence (Q9UKI8 1-549 isoform Q9UKI8-3)
The assay is described as follows: Binding to GST TLK1B affixed to Immobilon filter. The note with it: color will not wash out. The source says: To determine how structurally related antipsychotic drugs might differ from each other and produce different biological effects, we analyzed optimized drug structures by quantum mechanics (QM) methods. Drugs of interest were built with MarvinSketch 5.3.2 (ChemAxon) for initial optimization of the 3D structure. For the panels shown here (Sup. FIG. 1), orbitals from the highest occupied molecular orbital (HOMO) and the lowest unoccupied molecular orbital (LUMO) have been depicted. […] The planar heterocyclic ring structure of staurosporine and its out of plane aminated glucose moiety are reminiscent of the structure of the phenothiazines. Bulky substituents on the main phenothiazine ring, such as fluorine groups, may only be tolerated in a certain orientation relative to the alkyl side chain, depending upon the reactivity of the side chain. Moreover, the fit at the binding site will be determined by whether active groups in the drugs (rings vs. side chains) serve as donors or acceptors in non bond interactions (e.g., it bonding and van der Waals interactions). While QM characterization of the drugs is not definitive, certain trends emerged from this analysis. In Sup. […] In fact, methylene blue, which stains nucleic acids but not most proteins, remains so tightly bound to GST TLK1B that after its affixation to an Immobilon filter the color bound to the protein will not wash out.

In assay [4] the test system is Rad9 S328 phosphorylation in DU145 cells. Put plainly: Rad9 S328 phosphorylation and checkpoint markers in DU145 cells after H2O2. The class given is cell-based, human. On the procedure:
The inhibitors worked as expected on the pattern of phosphorylation of Rad9 […]. After treatment of DU145 cells with H2O2 for 10 min to generate breaks, there is a corresponding wave of phosphorylation and dephosphorylation of […] after completion of repair (FIG. 5) that matches the pattern of activity of TLK1/1B TLKs are the only known kinases that phosphorylate Rad9 […] 4. Generation of DSBs causes transient inhibition of TLK1 and simultaneous synthesis of TLK1B, which then results in hyper phosphorylation of […] upon restoration of kinase activity [FIG. 5A; 5]. Once H2O2 is degraded and most DNA breaks are repaired, the phosphorylation returns to baseline. The inhibitors, PPH (LS125) in particular, blocked the activation of TLK and consequent phosphorylation of Rad9 ([…]) (5C). […] FIG. 5). A key role of TLKs is then to participate in restoration of cell cycle upon completion of repair. Interfering with this process has dire consequences for cell viability; more likely for cancer cells that are genetically more unstable and already have defects in DNA repair functions, if not just for their reliance on these kinases.

Each structure is given as a SMILES string. Entries after “also recorded” stand apart in the source; their conditions may differ.

D2 receptor, sequence (P14416 whole entry): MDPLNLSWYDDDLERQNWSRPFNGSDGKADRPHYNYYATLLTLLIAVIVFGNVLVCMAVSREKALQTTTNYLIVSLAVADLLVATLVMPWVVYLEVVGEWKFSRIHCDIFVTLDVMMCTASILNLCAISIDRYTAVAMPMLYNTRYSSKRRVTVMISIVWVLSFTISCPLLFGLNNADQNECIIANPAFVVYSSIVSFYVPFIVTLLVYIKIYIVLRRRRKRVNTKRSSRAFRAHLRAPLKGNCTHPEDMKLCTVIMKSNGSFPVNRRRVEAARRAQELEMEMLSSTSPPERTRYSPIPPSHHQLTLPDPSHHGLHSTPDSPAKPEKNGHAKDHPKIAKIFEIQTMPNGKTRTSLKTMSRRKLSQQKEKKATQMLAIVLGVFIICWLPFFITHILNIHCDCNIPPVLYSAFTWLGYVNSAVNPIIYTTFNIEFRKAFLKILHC

For the compound `COc1cccc2c1C(=O)c1c(O)c3c(c(O)c1C2=O)C[C@@](O)(C(=O)CO)C[C@@H]3O[C@H]1C[C@H](N)[C@H](O)[C@H](C)O1` [doxo, doxorubicin], the tumor growth entry in the assay with PC 3 (human CaP cells) [1] was “definite trend was seen for doxo reducing tumor growth”. Besides, in the assay on PC 3 (human CaP cells) [2], the “P Rad9 (S328) staining” value was “much stronger staining for P Rad9”, the RPA staining entry was “overall staining was weaker for most areas of the section”, the “cellular density of the tumor (H&E staining)” value is reported as “only slightly decreased the cellular density of the tumor” and the γH2AX positive cells entry is “a large proportion”. Further, in the assay on MDA 231-Luc, the “tumor growth (photon emission)” value is reported as “insufficient to stop growth of tumors”.
Take `CCSc1ccc2c(c1)N(CCCN1CCN(C)CC1)c1ccccc1S2` [TEZ, thiethylperazine]: on TLK1B, the “activity on TLK (TLK kinase assays)” value is “identified as TLK inhibitors”.
For `OCCN1CCN(CCCN2c3ccccc3Sc3ccc(C(F)(F)F)cc32)CC1` [FF, fluphenazine], the “activity on TLK (TLK kinase assays)” value on TLK1B was “inactive for TLK”. Besides, the D2 receptor antagonism entry on D2 receptor is given as “more potent D2 receptor antagonist than either TFP (active) or THD”.
In the case of `CN1CCN(CCCN2c3ccccc3Sc3ccc(C(F)(F)F)cc32)CC1` [TFP, trifluoperazine], the “activity on TLK (TLK kinase assays)” value at TLK1B is recorded as “active; also recorded: identified as TLK inhibitors”. Also, the “inhibition of TLKs” value at TLK1B (sub toxic concentrations 10-20 μM) was “completely inhibit TLKs”. In addition, in the assay on cell cycle, the “(apoptotic) sub G1 cells” value is “very modest increase”, the “cleaved PARP” value is “very modest evidence of cleaved PARP” and the “effect on the cell cycle” value was “little effect on the cell cycle”. Moreover, the “restart of stalled replication forks and linked phosphorylation of Rad9 (S328)” value in assay [3] was “greatly extends this process”. The “DNA PK inhibition” value on DNA PK (TFP 10-20 μM) is “not inhibited”. Also, at DNA PK (in vitro), the “reported inhibition of DNA PK in vitro, concentration” value is 0.1 to 0.2 mM.
As for `CN(C)c1ccc2nc3ccc(=[N+](C)C)cc-3sc2c1` [methylene blue], at TLK1B, the “activity on TLK (TLK kinase assays)” value was “highly inhibitory”. On GST TLK1B, the “binding to GST TLK1B” value is given as “tightly bound”.
In the case of `OCCN1CCN(CCCN2c3ccccc3Sc3ccc(Cl)cc32)CC1` [PPH, perphenazine], the “activity on TLK (TLK kinase assays)” value on TLK1B is listed as “identified as TLK inhibitors”. Also, in assay [4] (H2O2), the “Chk1 activation (P Chk1 S345)” value was “persistent activation of Chk1”, the “cleavage of cdc25A” value was “elicited much faster” and the “phosphorylation of Rad17” value is given as “prolonged phosphorylation of Rad17”. In addition, the “activation of TLK and phosphorylation of Rad9 (S328)” value in assay [4] (H2O2 for 10 min) was “blocked the activation of TLK and consequent phosphorylation of Rad9 (S328)”.
Turning to `CN(C)CCCN1c2ccccc2Sc2ccccc21` [PMZ, promazine], the “activity on TLK (TLK kinase assays)” value on TLK1B is listed as “identified as TLK inhibitors”. Further, the D2 receptor antagonism entry on D2 receptor was “does not have much activity as a D2 antagonist”.
Consider `c1ccc2c(c1)Nc1ccccc1S2` [phenothiazine], for which the “activity on TLK (TLK kinase assays)” value on TLK1B was “highly inhibitory”.
For `CN1CCN(CCCN2c3ccccc3Sc3ccc(Cl)cc32)CC1` [PCP, prochlorperazine], at TLK1B, the “activity on TLK (TLK kinase assays)” value is “inactive”.
